How the values were obtained:
Assay type in all cases: cell-based
[1] = test system: NCI-H358 cell line; assay: Combination effect with targeted anticancer agent, cell viability (CellTiter-Glo, combination index), H358; settings: H358 cells, 7 days, Example 1 compound 0.0001 to 0.1 µM, Fig. 1
Description: Test for evaluating the combination effect of targeted anticancer agent- Cell Viability
In this experimental example, we examined whether the compound according to the present invention has a synergistic effect on cancer cell death when used in combination with a target anticancer agent related to another RAS signal transduction pathway.
NCI-H358 cell line (ATCC catalog no. CRL-5807, USA) or EGFR exon 19 deletion cancer cell line PC-9 (Riken, Japan catalog no. RCB4455) were seeded in a well plate (500 cells per well for H358 and 50 cells per well for PC-9) in RPMI1640 (Gibco, USA catalog no. 22400-089) medium containing 10% fetal bovine serum (Excel Bio, USA catalog no. FSP500) and cultured for one day at 37°C under 5% CO2 conditions. […] Cell survival analysis was performed by luminescence analysis using the Promega CellTiter-Glo Luminescent Cell Viability Assay Kit (Promega, catalog number G7573), and luminescence was measured using a PerkinElmer 2014 EnVision plate reader. The inhibition rate was calculated from the measured relative luminescence value in the same manner as in Experimental Example 3, and the combination index (CI) between the compound of the present invention and the target anticancer agent was calculated using the following equation. […]

[2] = test system: NCI-H358; assay: Cell Growth Inhibition Assay (3D CellTiter-Glo); settings: Homo sapiens, NCI-H358, 288 h, read-out: Cell growth IC50
Description: Cell Growth Inhibition Assay
In this experimental example, the cell growth inhibitory effect of compounds according to the present invention and positive control compounds in tumor cell lines was examined.
The cell culture medium containing the compound was replaced by 100 µL every 3 days. Luminescence analysis was performed using the 3D CellTiter-Glo Luminescent Cell Viability Assay Kit (Promega, USA) (Promega catalog number G9681). […] The percent cell growth inhibition rate was calculated from the measured relative luminescence unit (RLU) as follows. Inhibition rate = 1−((RLU compound−RLU blank)/(RLU control−RLU blank)) X 100 [formula]

[3] = test system: MIA-PaCa-2; assay: Reactive oxygen species (ROS) production assay; settings: MIA-PaCa-2 cells, 10 µM, 24 hours; Figure 3
Description: Reactive oxygen species (ROS) production assay
In this experimental example, it was examined that the compound according to the present invention has the effect of increasing reactive oxygen in tumor cells.
MIA-PaCa-2 (Korea Cell Line Bank KCLB No. 21420), a cancer cell line harboring KRAS G12C mutation, was cultured in a cell culture medium containing RPMI1640 (Gibco, USA, catalog no. 11875-119), 10% fetal bovine serum (HyClone, USA, catalog no. SH30919.03), and 1 × diluted HyClone Antibiotic Antimycotic solution (HyClone, USA, catalog no. SV30079.01). 3 × 10^5 cells were seeded per well in a 6-well plate and cultured for 1 day at 37°C under 5% CO2 conditions. […] The cells were then collected in a microtube and analyzed for fluorescence using a BD LSRFortessa™ X-20 Cell Analyzer (BD Biosciences, USA) (excitation wavelength: 488 nm, emission wavelength: 535 nm). The fluorescence intensity due to the increase in reactive oxygen species was measured for 10,000 cells. Among the cells treated with 500 µM hydrogen peroxide, which was the positive control, the section in which the fluorescence intensity increased compared to the cells treated with the blank sample was found, and the average fluorescence intensity of the cells within this section was calculated. […]

With CNCc1ccccc1-c1c[se]c([C@@H](C)Nc2nc(C)nc3cc(OC)c(OC)cc23)c1 [Example 1, (R)-6,7-dimethoxyl-2-methyl-N-(1-(4-(2-((methylamino)methyl)phenyl)selenophen-2-yl)ethyl)quinazolin-4-amine] the “synergistic effect inhibiting cell growth in combination with sotorasib” value ([1]; sotorasib 0.001 to 1 µM) was “strong synergistic effect”, the “synergistic effect inhibiting cell growth in combination with trametinib” value ([1]; trametinib 0.001 to 0.1 µM) was “strong synergistic effect” and the IC50 [2] was 20.7 nM. The “ROS production compared to the blank sample” value [3] was “significantly increased ROS production”.

— EP4737453A1, “NOVEL SELENOPHENE DERIVATIVES” (Aigen Sciences Inc., priority 2023, dated 2025)
